{"source": "ChEMBL document CHEMBL1133592", "about": "“trans-1-[(2-Phenylcyclopropyl)methyl]-4-arylpiperazines: mixed dopamine D(2)/D(4) receptor antagonists as potential antipsychotic agents” (J Med Chem, 2000)"}
{"species_on_record": "Rattus norvegicus", "test": "animal or person", "settings": "read-out: MED", "units": {"minimal effective dose": "mg/kg"}, "description": "Minimum effective dose observed in rat catalepsy experiments"}
{"compound": "O=C(CCCN1CCC(O)(c2ccc(Cl)cc2)CC1)c1ccc(F)cc1", "note": "[HALOPERIDOL]", "minimal effective dose": 0.5}
{"tested_on": "not listed separately", "test": "Half-life determined upon exposure to rat liver microsomes", "type": "ADME, Microsome", "settings": "not given", "units": {"half-life": "min"}}
{"compound": "Br.Cc1ccc(N2CCN(C[C@@H]3C[C@H]3c3ccccc3)CC2)c(C)c1", "half-life": 3}
{"compound": "Br.Clc1ccc(N2CCN(C[C@H]3C[C@@H]3c3ccccc3)CC2)c(Cl)c1", "half-life": 2}
{"species_on_record": "Rattus norvegicus", "test": "animal or person", "settings": "read-out: MED", "remark": "another data set of the same source", "units": {"minimal effective dose": "mg/kg"}, "description": "Minimum effective dose that produced a significant effect relative to the amphetamine alone control using a Fisher's LSD post hoc test (P<0.05)"}
{"compound": "CN1CCN(C2=Nc3cc(Cl)ccc3Nc3ccccc32)CC1", "note": "[CLOZAPINE]", "minimal effective dose": 0.5}
{"compound": "O=C(CCCN1CCC(O)(c2ccc(Cl)cc2)CC1)c1ccc(F)cc1", "note": "[HALOPERIDOL]", "minimal effective dose": 0.06}
{"target": "T1, Adrenergic receptor alpha-1 (Rattus norvegicus, UniProt P15823+P23944+P43140)", "T1 sequence (P15823 whole entry)": "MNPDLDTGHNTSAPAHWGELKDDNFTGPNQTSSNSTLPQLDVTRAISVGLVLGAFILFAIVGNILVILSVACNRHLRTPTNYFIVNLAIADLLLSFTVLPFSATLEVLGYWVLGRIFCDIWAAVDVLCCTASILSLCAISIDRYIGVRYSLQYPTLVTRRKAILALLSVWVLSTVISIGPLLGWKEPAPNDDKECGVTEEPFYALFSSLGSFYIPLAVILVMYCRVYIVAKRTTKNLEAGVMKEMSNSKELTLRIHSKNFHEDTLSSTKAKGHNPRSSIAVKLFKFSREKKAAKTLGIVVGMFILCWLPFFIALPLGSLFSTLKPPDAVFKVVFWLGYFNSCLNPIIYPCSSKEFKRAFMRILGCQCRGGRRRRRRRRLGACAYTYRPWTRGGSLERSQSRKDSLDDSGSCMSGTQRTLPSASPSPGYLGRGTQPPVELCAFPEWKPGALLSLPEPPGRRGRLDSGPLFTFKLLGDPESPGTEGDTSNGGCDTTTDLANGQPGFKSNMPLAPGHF", "T1 sequence (P23944 whole entry)": "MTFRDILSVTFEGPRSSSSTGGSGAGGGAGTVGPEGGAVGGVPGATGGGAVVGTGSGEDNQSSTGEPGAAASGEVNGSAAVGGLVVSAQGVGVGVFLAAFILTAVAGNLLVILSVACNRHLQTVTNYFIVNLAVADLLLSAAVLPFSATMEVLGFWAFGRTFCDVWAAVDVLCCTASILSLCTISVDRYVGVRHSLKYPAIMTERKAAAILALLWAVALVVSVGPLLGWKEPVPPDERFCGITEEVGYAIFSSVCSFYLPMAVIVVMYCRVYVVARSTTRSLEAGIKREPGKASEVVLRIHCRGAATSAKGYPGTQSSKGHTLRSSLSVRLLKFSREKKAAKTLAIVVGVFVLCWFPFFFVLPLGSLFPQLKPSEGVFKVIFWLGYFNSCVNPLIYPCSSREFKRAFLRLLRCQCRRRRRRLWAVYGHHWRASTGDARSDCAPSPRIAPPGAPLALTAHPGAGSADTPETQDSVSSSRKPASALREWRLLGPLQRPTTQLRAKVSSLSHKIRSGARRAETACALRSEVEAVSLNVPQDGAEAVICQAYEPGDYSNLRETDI", "T1 sequence (P43140 whole entry)": "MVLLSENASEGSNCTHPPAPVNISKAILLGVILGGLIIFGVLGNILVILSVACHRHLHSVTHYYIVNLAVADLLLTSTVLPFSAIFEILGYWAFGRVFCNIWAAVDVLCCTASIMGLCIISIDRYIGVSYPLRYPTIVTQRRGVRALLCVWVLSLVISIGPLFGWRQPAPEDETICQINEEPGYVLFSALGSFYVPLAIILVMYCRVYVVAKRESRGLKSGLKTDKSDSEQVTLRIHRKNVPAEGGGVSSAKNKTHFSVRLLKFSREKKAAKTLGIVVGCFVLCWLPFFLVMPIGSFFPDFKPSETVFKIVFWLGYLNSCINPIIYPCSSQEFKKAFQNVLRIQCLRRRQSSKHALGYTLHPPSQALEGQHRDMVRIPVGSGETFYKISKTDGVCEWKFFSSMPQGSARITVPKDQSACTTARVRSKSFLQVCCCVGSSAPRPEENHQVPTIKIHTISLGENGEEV", "test": "not given", "settings": "not given", "units": {"IC50": "nM"}}
{"compound": "Br.Cc1ccc(N2CCN(C[C@@H]3C[C@H]3c3ccccc3)CC2)c(C)c1", "IC50": 131}
{"compound": "Br.Cc1cc(F)ccc1N1CCN(C[C@H]2C[C@@H]2c2ccccc2)CC1", "IC50": 31}
{"compound": "Br.Cc1cc(Cl)ccc1N1CCN(C[C@H]2C[C@@H]2c2ccccc2)CC1", "IC50": 307}
{"compound": "Br.COc1cc(Cl)ccc1N1CCN(C[C@H]2C[C@@H]2c2ccccc2)CC1", "IC50": 29}
{"compound": "Br.Br.COc1cc(F)ccc1N1CCN(C[C@H]2C[C@@H]2c2ccccc2)CC1", "IC50": 14}
{"compound": "Br.Clc1ccc(N2CCN(C[C@H]3C[C@@H]3c3ccccc3)CC2)c(Cl)c1", "IC50": 322}
{"compound": "Br.Cc1ccc(N2CCN(C[C@H]3C[C@@H]3c3ccccc3)CC2)c(C)c1", "IC50": 137}
{"compound": "Clc1ccc(N2CCN(C[C@@H]3C[C@H]3c3ccccc3)CC2)c(Cl)c1", "IC50": 348}
{"compound": "Br.Oc1ccc([C@H]2C[C@@H]2CN2CCN(c3ccc(Cl)cc3Cl)CC2)cc1", "note": "(racemic)", "IC50": 74}
{"compound": "Br.c1ccc([C@H]2C[C@@H]2CN2CCN(c3cccnc3)CC2)cc1", "note": "(racemic)", "IC50": "> 1246"}
{"compound": "Br.COc1c(Cl)cc(N2CCN(C[C@H]3C[C@@H]3c3ccccc3)CC2)cc1Cl", "note": "(racemic)", "IC50": 193}
{"compound": "Br.COc1ccc(Cl)cc1N1CCN(C[C@H]2C[C@@H]2c2ccccc2)CC1", "note": "(racemic)", "IC50": 8}
{"compound": "Br.COc1ccc([C@H]2C[C@@H]2CN2CCN(c3ccc(Cl)cc3Cl)CC2)cc1", "note": "(racemic)", "IC50": 61}
{"compound": "Br.c1ccc([C@H]2C[C@@H]2CN2CCN(c3ccncc3)CC2)cc1", "note": "(racemic)", "IC50": "> 10000"}
{"compound": "Br.Clc1ccc(N2CCN(C[C@H]3C[C@@H]3c3ccccc3)CC2)cc1Cl", "note": "(racemic)", "IC50": 45}
{"compound": "Br.Clc1cccc(N2CCN(C[C@H]3C[C@@H]3c3ccccc3)CC2)c1Cl", "note": "(racemic)", "IC50": 329}
{"compound": "Br.Clc1ccccc1N1CCN(C[C@H]2C[C@@H]2c2ccccc2)CC1", "note": "(racemic)", "IC50": 10}
{"compound": "Br.COc1cccc(N2CCN(C[C@H]3C[C@@H]3c3ccccc3)CC2)c1", "note": "(racemic)", "IC50": 324}
{"compound": "Br.Fc1ccc([C@H]2C[C@@H]2CN2CCN(c3ccccc3Cl)CC2)cc1", "note": "(racemic)", "IC50": 9}
{"compound": "Br.Clc1ccc(N2CCN(C[C@H]3C[C@@H]3c3ccccc3)CC2)cc1", "note": "(racemic)", "IC50": 81}
{"compound": "Br.Clc1cccc(N2CCN(C[C@H]3C[C@@H]3c3ccccc3)CC2)c1", "note": "(racemic)", "IC50": 70}
{"compound": "Br.Fc1ccc([C@H]2C[C@@H]2CN2CCN(c3ccc(Cl)cc3)CC2)cc1", "note": "(racemic)", "IC50": 61}
{"compound": "Br.COc1ccc(N2CCN(C[C@H]3C[C@@H]3c3ccccc3)CC2)cc1", "note": "(racemic)", "IC50": 633}
{"compound": "Br.Clc1cc(Cl)cc(N2CCN(C[C@H]3C[C@@H]3c3ccccc3)CC2)c1", "note": "(racemic)", "IC50": 1341}
{"compound": "Cl.c1ccc([C@H]2C[C@@H]2CN2CCN(c3ncccn3)CC2)cc1", "note": "(racemic)", "IC50": 168}
{"compound": "Cl.c1ccc([C@H]2C[C@@H]2CN2CCN(c3ccccn3)CC2)cc1", "note": "(racemic)", "IC50": 55}
{"compound": "Br.Clc1ccc(N2CCN(C[C@H]3C[C@@H]3c3ccccc3)CC2)c(Cl)c1", "note": "(racemic)", "IC50": 311}
{"compound": "Br.Cc1ccc(N2CCN(CC3CC3c3ccccc3)CC2)c(C)c1", "note": "(racemic)", "IC50": 144}
{"compound": "c1ccc([C@H]2C[C@@H]2CN2CCN(c3ccccc3)CC2)cc1", "note": "(racemic)", "IC50": 22}
{"tested_on": "not listed separately", "test": "Half-life determined upon exposure to human liver microsomes", "type": "ADME, Microsome", "settings": "not given", "units": {"half-life": "min"}}
{"compound": "Br.Cc1ccc(N2CCN(C[C@@H]3C[C@H]3c3ccccc3)CC2)c(C)c1", "half-life": 16}
{"compound": "Br.Clc1ccc(N2CCN(C[C@H]3C[C@@H]3c3ccccc3)CC2)c(Cl)c1", "half-life": 19}
